Usually pIC50 stands for −log10 of the IC50, conventionally taken in molar units.

pIC50: −log10 of the molar value. Read-outs that look alike come from different tables or passages of the source.

Assay in all cases: PTP IC50 assay, fluorescent substrate DiFMUP
What all share (format): biochemical

One test concerns the target T1, PTP 1B (Homo sapiens, UniProt P18031).
T1 construct: made in house; host or cells: Sf-9 insect cells (pFastBac-G2T)
T1 sequence (P18031 1-435): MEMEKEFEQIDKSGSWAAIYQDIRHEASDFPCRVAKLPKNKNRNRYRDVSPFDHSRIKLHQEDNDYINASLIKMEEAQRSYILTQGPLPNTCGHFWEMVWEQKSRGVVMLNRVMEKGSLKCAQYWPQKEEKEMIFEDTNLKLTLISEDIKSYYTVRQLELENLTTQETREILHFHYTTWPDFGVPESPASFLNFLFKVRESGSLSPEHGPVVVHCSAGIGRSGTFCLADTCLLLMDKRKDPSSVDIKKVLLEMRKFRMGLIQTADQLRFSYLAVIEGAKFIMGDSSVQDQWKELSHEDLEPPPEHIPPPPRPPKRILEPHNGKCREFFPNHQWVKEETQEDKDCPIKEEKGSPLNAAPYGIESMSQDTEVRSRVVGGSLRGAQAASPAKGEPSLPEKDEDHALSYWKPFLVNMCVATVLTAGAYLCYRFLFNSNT
The source says:
The PTP1b cDNA was amplified from human placenta single strand cDNA (Clontech RNA) using the following oligonucleotides: 5′oligo: 5′-[…] (SEQ ID NO: 4) 3′oligo: 5′-[…] (SEQ ID NO: 5) It was subsequently ligated into pFasBac G2TBamH1Xba-1 sites.
(§1) The following in vitro assay procedure is preferred to determine the level of activity and effect of the different compounds of the present invention on one or more of the PTPs. Similar assays can be designed along the same lines for any PTP using techniques well known in the art.
(§2) The catalytic assays described herein are performed in a 96-well format. The general procedure begins with the determination of PTP optimal pH using a three-component buffer system that minimizes ionic strength variations across a wide range of buffer pH. Next, the Michaelis-Menten constant, or Km, is determined for the substrate 6,8-difluoro-4-methylumbelliferyl phosphate (DiFMUP). This Km value is subsequently used as the substrate reaction concentration for compound screening. Finally, the test PTP is exposed to varying concentrations of compound for fifteen minutes and allowed to react with substrate for ten minutes. The results are plotted as percent inhibition versus compound concentration and the IC50 interpolated from the plot.
(§3) All assays were performed using DiFMUP as substrate. The optimum pH and substrate Km was determined for each PTP used.
(§4) PTPase activity was assayed at 25° C. in a 100-μl reaction mixture containing an appropriate concentration of DiFMUP as substrate. The reaction was initiated by addition of the purified PTP and quenched after 10 min by addition of 1% H2O2/100 mM NaCl. The non-enzymatic hydrolysis of the substrate was corrected by measuring the control without the addition of the enzyme. The amount of DiFMU produced was determined from the increase in the fluorescence (360 nm excitation/460 nm emission) over that of background in the absence of PTPase. To determine the kinetic parameter, Km, the initial velocities were measured at various substrate concentrations and the data were fitted to the Michaelis equation where velocity=(Vmax*[S])/(Km+[S]), and [S]=substrate reaction concentration.
(§5) The effect of the compounds on PTP was evaluated at 25° C. using DiFMUP as substrate. PTP was pre-incubated for fifteen minutes with various concentrations of compound. Substrate was then added at a fixed concentration (usually equal to the Km previously calculated). After 10 minutes, the reaction was quenched. The hydrolysis of DiFMUP was followed as described above. The percent inhibition was calculated as follows: Percent Inhibition=[(control signal−compound signal)/control signal]×100%. The IC50 was then determined by interpolation of a percent inhibition versus compound concentration plot.
(§6) Plasmids designed for bacterial GST-PTP fusion protein expression were derived by insertion of PCR-generated human PTP fragments into pGEX vectors (Pharmacia Biotech). Several of these constructs were then used to subclone phosphatases into pFastBac-1 for expression in Sf-9 insect cells. Oligonucleotides used for the initial amplification of PTP genes are as described above. The cDNAs were prepared using the Gilbo BRL superscript preamplification system on RNAs purchased from Clontech.

For a further test, the target named is T2, PTP EPSILON (Homo sapiens, UniProt P23469).
T2 construct: made in house; host or cells: Sf-9 insect cells (pFastBac-G2T); a pGEX 6P-1 construct also existed
T2 sequence (P23469 80-393 limits assumed): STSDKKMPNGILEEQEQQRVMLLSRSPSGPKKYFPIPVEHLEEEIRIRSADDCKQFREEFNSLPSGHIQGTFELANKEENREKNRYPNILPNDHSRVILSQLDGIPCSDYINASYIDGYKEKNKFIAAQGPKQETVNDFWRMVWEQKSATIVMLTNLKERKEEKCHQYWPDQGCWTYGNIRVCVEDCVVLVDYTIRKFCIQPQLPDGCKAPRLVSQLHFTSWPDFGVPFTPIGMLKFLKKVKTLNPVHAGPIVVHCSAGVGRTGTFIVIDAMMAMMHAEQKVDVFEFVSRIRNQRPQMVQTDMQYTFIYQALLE
Excerpt: The PTPepsilon cDNA was amplified from human placenta single-strand cDNA (Clontech RNA) using the following oligonucleotides: 5′oligo: 5′-[…]-3′ (SEQ ID NO: 6) 3′oligo: 5′-[…]-3′ (SEQ ID NO: 7) After cloning this PCR product into the Bam HI/Xho I sites of pGEX 6P-1, this phosphatase was subcloned using the same restriction sites in pFastBac-G2T.
as §1, §2, §3, §4, §5, §6

For another test, the target named is T3, PTP SHP2 (Homo sapiens, UniProt Q06124).
T3 construct: The catalytic domain was amplified using the following oligonucleotides; made in house; host or cells: Sf-9 insect cells (pFastBac-G2T)
T3 sequence (Q06124 247-517 limits assumed): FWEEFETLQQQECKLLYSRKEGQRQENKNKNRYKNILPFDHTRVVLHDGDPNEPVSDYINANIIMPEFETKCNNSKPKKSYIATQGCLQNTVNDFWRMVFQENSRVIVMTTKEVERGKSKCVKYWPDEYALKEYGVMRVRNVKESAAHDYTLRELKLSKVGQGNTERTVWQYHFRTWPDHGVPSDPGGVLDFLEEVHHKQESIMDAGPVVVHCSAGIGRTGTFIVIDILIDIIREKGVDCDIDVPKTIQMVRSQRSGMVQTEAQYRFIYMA
Excerpt: SHP-2 cDNA was used as described earlier (Vogel W., et al.,1993, Science, 259:1611-4). The catalytic domain was amplified using the following oligonucleotides 5′oligo: 5′-[…]-3′ (SEQ ID NO: 2) 3′oligo: 5′-[…]-3′ (SEQ ID NO: 3) and subsequently subcloned into BamH1-Xba-1 sites. It was then ligated into pfas Bac-G2T BamH1-Xba-1 sites.
as §1, §2, §3, §4, §5, §6

Where [1] appears, read: DiFMUP as substrate, 25° C., read-out: PTP IC50 1B.
Where [2] appears, read: DiFMUP as substrate, 25° C., read-out: PTP IC50 Epilson.
[3] abbreviates: DiFMUP as substrate, 25° C., read-out: PTP IC50 SHP2.

Turning to `O=[N+]([O-])c1ccc(NCC(O)COc2ccc(S(=O)(=O)C(F)(F)F)cc2[N+](=O)[O-])cc1` (stereo not drawn) [Example 60, 1-(4-Nitro-phenylamino)-3-(2-nitro-4-trifluoromethanesulfonyl-phenoxy)-propan-2-ol], the pIC50 is 4.79 at PTP 1B (setting [1]), 4.29 at PTP EPSILON (setting [2]) and 5.32 on PTP SHP2 (setting [3]).
In the case of `O=[N+]([O-])c1cc(S(=O)(=O)C(F)(F)F)ccc1Oc1ccc(S(=O)(=O)c2ccc(Oc3ccc(S(=O)(=O)C(F)(F)F)cc3[N+](=O)[O-])cc2)cc1` [Example 63, Bis-{[4-(2-nitro-4-trifluoromethanesulfonyl)-phenoxy]-phenyl}sulfone], the values for the pIC50 at PTP 1B, at PTP EPSILON and at PTP SHP2 were 6.15, 5.62 and 6.40, respectively.
On to `O=C(O)c1cc2cc(NS(=O)(=O)C(F)(F)F)ccc2[nH]1` [Example 77, 5-Trifluoromethanesulfonylamino-1H-indole-2-carboxylic acid], for which the pIC50 was under 4.00 at PTP 1B (setting [1]), under 4.70 on PTP EPSILON (setting [2]) and under 4.00 on PTP SHP2 (setting [3]).
Consider `Cn1c(C(=O)O)cc2cc(NS(=O)(=O)C(F)(F)F)ccc21` [Example 78, 1-Methyl-5-trifluoromethanesulfonylamino-1H-indole-2-carboxylic acid], for which the pIC50 at PTP 1B (setting [1]), at PTP EPSILON (setting [2]) and at PTP SHP2 (setting [3]) was under 4.00 in each case.
With `Cc1cc2cc(NS(=O)(=O)C(F)(F)F)ccc2n1CC(=O)O` [Example 79, (2-Methyl-5-trifluoromethanesulfonylamino-indol-1-yl)-acetic acid], the pIC50 at PTP 1B (setting [1]) was under 4.00; on PTP EPSILON (setting [2]) it was under 4.70; on PTP SHP2 (setting [3]), under 4.00.
Regarding `Cn1c(C(=O)Nc2ccccc2)cc2cc(NS(=O)(=O)C(F)(F)F)ccc21` [Example 80, 1-Methyl-5-trifluoromethanesulfonylamino-1H-indole-2-carboxylic acid phenylamide], the values for the pIC50 at PTP 1B (setting [1]), on PTP EPSILON (setting [2]) and at PTP SHP2 (setting [3]) were under 4.70, 4.57 and 4.24, respectively.
The corresponding values for `O=C(Nc1ccccc1)c1cc2cc(NS(=O)(=O)C(F)(F)F)ccc2[nH]1` [Example 81, 5-Trifluoromethanesulfonylamino-1H-indole-2-carboxylic acid phenylamide] are 4.84, 5.36 and 5.21.
On the same counts, the results for `Cn1c(C(=O)Nc2cccc(C(=O)O)c2)cc2cc(NS(=O)(=O)C(F)(F)F)ccc21` [Example 82, 3-[(1-Methyl-5-trifluoromethanesulfonylamino-1H-indole-2-carbonyl)-amino]-benzoic acid] are under 4.70, 5.11 and 4.06.
Regarding `O=C(O)c1cccc(NC(=O)c2cc3cc(NS(=O)(=O)C(F)(F)F)ccc3[nH]2)c1` [Example 83, 3-[(5-Trifluoromethanesulfonylamino-1H-indole-2-carbonyl)-amino]-benzoic acid], the pIC50 at PTP 1B (setting [1]) was under 4.70; on PTP EPSILON (setting [2]) it was 5.08; on PTP SHP2 (setting [3]), 4.23.
The corresponding values for `O=C(O)c1ccc(NC(=O)c2cc3cc(NS(=O)(=O)C(F)(F)F)ccc3[nH]2)cc1` [Example 84, 4-[(5-Trifluoromethanesulfonylamino-1H-indole-2-carbonyl)-amino]-benzoic acid] are under 4.70, 4.79 and 4.21.
The corresponding values for `Cc1cc2cc(NS(=O)(=O)C(F)(F)F)ccc2n1CC(=O)Nc1cccc(C(=O)O)c1` [Example 86, 3-[2-(2-Methyl-5-trifluoromethanesulfonylamino-indol-1-yl)-acetylamino]-benzoic acid] are under 4.70, under 4.70 and under 4.00.
The corresponding values for `Cc1cc2cc(NS(=O)(=O)C(F)(F)F)ccc2n1CC(=O)NCc1ccc(C(=O)O)cc1` [Example 87, 4-{[2-(2-Methyl-5-trifluoromethanesulfonylamino-indol-1-yl)-acetylamino]-methyl}-benzoic acid] are under 4.70, under 4.70 and 4.01.
Consider `Cc1cc2cc(NS(=O)(=O)C(F)(F)F)ccc2n1CC(=O)OC(C)(C)C` [Example 88, (2-Methyl-5-trifluoromethanesulfonylamino-indol-1-yl)-acetic acid tert-butyl ester], for which the pIC50 on PTP 1B (setting [1]) was under 4.70; on PTP EPSILON (setting [2]) it was 5.09; on PTP SHP2 (setting [3]), 4.50.
On the same counts, the results for `CCOC(=O)c1cc2cc(NS(=O)(=O)C(F)(F)F)ccc2n1C` [Example 89, 1-Methyl-5-trifluoromethanesulfonylamino-1H-indole-2-carboxylic acid ethyl ester] are under 4.70, under 4.70 and 4.16.
On the same counts, the results for `O=C(O)c1ccc2cc(NS(=O)(=O)C(F)(F)F)ccc2c1` [Example 90, 6-Trifluoromethanesulfonylamino-naphthalene-2-carboxylic acid] are under 4.70, 4.44 and 4.19.
In the case of `O=C(O)c1ccc2cc(CN(Cc3ccc4cc(C(=O)O)ccc4c3)S(=O)(=O)C(F)(F)F)ccc2c1` [Example 91, N,N-Bis[(6-carboxyl-naphthalen-2-yl)methyl]trifluoromethanesulfonamide], the pIC50 on PTP 1B (setting [1]) was under 4.70; on PTP EPSILON (setting [2]), under 4.70; on PTP SHP2 (setting [3]), 4.59.
For `CN(Cc1ccc2cc(C(=O)O)ccc2c1)S(=O)(=O)C(F)(F)F` [Example 92, 6-[(Methyl-trifluoromethanesulfonyl-amino)-methyl]-naphthalene-2-carboxylic acid], the pIC50 on PTP 1B (setting [1]) is under 4.70; at PTP EPSILON (setting [2]), 5.29; at PTP SHP2 (setting [3]) it was 4.32.
The corresponding values for `CN(Cc1ccc2cc(C(=O)Nc3cccc(C(=O)O)c3)ccc2c1)S(=O)(=O)C(F)(F)F` [Example 93, 3-({6-[(Methyl-trifluoromethanesulfonyl-amino)-methyl]-naphthalene-2-carbonyl}-amino)-benzoic acid] are 4.80, 5.13 and 4.80.

Values taken from patent US6596772B1, “Phosphate mimics and methods of treatment using phosphatase inhibitors” (Sugen, Inc., priority 1999, dated 2003).
